Patent publication US20250228865A1, “COMPOUNDS FOR ENHANCING READ THROUGH OF GENES CONTAINING PREMATURE TERMINATION CODONS AND METHODS FOR MAKING AND USING THE SAME” (Sanofi US Services Inc., priority 2022, published 2025)

Tests used:
[1] = tested on: recombinant human CFTR carrying the premature stop codon (PTC) mutation G542X; test: CFTR-PTC mutant translation readthrough, Nanoluc tagged CFTR luminescence (G542X cell line); format: cell-based; settings: in combination with G418, G542X cell line; for CFTR G542X ACTIVITY Fold 10 μM G-418: fold over 10 μM G-418; for EC50: 16HBE cells
Method: (§1) 16HBE human bronchial epithelial cells (stably over-expressing recombinant human CFTR carrying the premature stop codon (PTC) mutation G542X or R1162X along with a Nanoluc tag incorporated into the CFTR channel within extracellular loop 4 in G542X cell line or C-terminus end in the R1162X cell line were seeded at 0.01×10^6 cells/well and grown in Minimal Essential Medium (MEM) as monolayers in 384 well plates and incubated at 37° C. with 5% CO2. Media was changed every other day until day of experiment. Agents to be evaluated were made up in separate 384 well, polypropylene plates at a 2X the final desired test concentration. Test agent 10-point concentration response curves were constructed using the Labcyte Echo 555 acoustic dispenser. Test agents were typically tested at a max final test concentrations of 50 μM with sequential 2-fold lower concentrations below this in the absence or presence of a fixed 10 μM concentration of the aminoglycoside G418 made up in MEM growth media (reduced Serum Media+HEPES Buffer+2.4 g/L Sodium Bicarbonate+L-Glutamine containing CFTR corrector VX-809 (3 μM)). Treatment with 10 μM G418 alone produced approximately 10% of the response observed with a maximally effective concentration of G418 (typically 125-250 μM). Test agent effects in presence of 10 μM G418 were compared to control wells on the plate containing a maximally effective concentration of G418 (typically 125-250 μM) made up in the same media. 25 ul of test agents/control solutions were transferred from the compound plate to the cell plate, which already contained 25 ul/well of cell plating media, using an Integra Viaflo 384. Cell plates were incubated with the compounds for 48 hours, at which time they were processed using Nanoluc luminescence Kit (Promega Nano-Glo Live Cell Assay System) to measure CFTR-PTC mutant translation readthrough. Luminescence was measured as follows. Cell plates were removed from the incubator and allowed to equilibrate to room temperature for 20 minutes. Media was removed from all wells and the plates were blotted to remove excess remaining volume. Nano-Glo Live Cell Substrate was diluted 1:20 in the appropriate amount of Nano-Glo LCS Dilution Buffer to accommodate the number of cell plates being tested. The substrate/dilution buffer mix was then diluted 1:3 with MEM media to make the appropriate volume for the number of plates being tested. The substrate/dilution buffer/OptiMEM mix was added across the Nanoluc testing cell plates and the plates were read for luminescence signal immediately. Test agent effects on CFTR translation readthrough was determined by normalizing any observed increase in luminescence induced by 48 hours pretreatment with test compound to the magnitude of luminescence increase produced by pretreatment with a maximally effective concentration of the reference readthrough enhancing agent G418 (125-250 μM).

[2] = tested on: recombinant human CFTR carrying the premature stop codon (PTC) mutation R1162X; test: CFTR-PTC mutant translation readthrough, Nanoluc tagged CFTR luminescence (R1162X cell line); format: cell-based; settings: for CFTR R1162X ACTIVITY Fold 10 μM G-418: fold over 10 μM G-418, in combination with G418; for EC50: in combination with G418, 16HBE cells, read-out: CFTR R1162X ACTIVITY EC50
Method: as §1

EC50 [1]	EC50 [2]	SMILES	CFTR G542X ACTIVITY Fold 10 μM G-418 [1]	CFTR R1162X ACTIVITY Fold 10 μM G-418 [2]
1000 to 10000 nM	1000 to 10000 nM	OCc1ncn(-c2ccc(OCc3c(Cl)cccc3OC(F)F)cc2)n1	A′ (A′ = ≥10X)	B′ (B′ = ≥5X to <10X)
1000 to 10000 nM	1000 to 10000 nM	Cc1cccc(C(F)(F)F)c1COc1cnc(NC(=O)N(C)C)nc1	A′ (A′ = ≥10X)	C′ (C′ = <5X)
1000 to 10000 nM	1000 to 10000 nM	OC[C@H]1CN(c2ncc(OCc3c(Cl)cccc3Cl)cn2)CCO1 [[(2R)-4-[5-[(2,6-dichlorophenyl)methoxy]pyrimidin-2-yl]morpholin-2-yl]methanol]	A′ (A′ = ≥10X)	A′ (A′ = ≥10X)
< 1000 nM	< 1000 nM	C[C@H]1CO[C@@H](CO)CN1c1ncc(OCc2c(Cl)cccc2Cl)cn1 (racemic)	A′ (A′ = ≥10X)	A′ (A′ = ≥10X)
< 1000 nM	1000 to 10000 nM	OC1(c2ccccc2)CCN(c2ncc(OCc3c(Cl)cccc3Cl)cn2)CC1 [1-[5-[(2,6-dichlorophenyl)methoxy]pyrimidin-2-yl]-4-phenyl-piperidin-4-ol]	A′ (A′ = ≥10X)	A′ (A′ = ≥10X)
1000 to 10000 nM	1000 to 10000 nM	NCc1cn(-c2ccc(OCc3c(Cl)cccc3Cl)cn2)nn1 [[1-[5-[(2,6-dichlorophenyl)methoxy]-2-pyridyl]triazol-4-yl]methanamine]	A′ (A′ = ≥10X)	A′ (A′ = ≥10X)
1000 to 10000 nM	1000 to 10000 nM	O=C1OC(CO)CN1c1ccc(OCc2c(Br)cccc2Br)cc1 (centres unmarked) [3-[4-[(2,6-dibromophenyl)methoxy]phenyl]-5-(hydroxymethyl)oxazolidin-2-one]	A′ (A′ = ≥10X)	A′ (A′ = ≥10X)
1000 to 10000 nM	> 10000 nM	O=C1O[C@H](CO)CN1c1ncc(OCc2c(Cl)cccc2C(F)(F)F)cn1 [(5S)-3-(5-{[2-chloro-6-(trifluoromethyl)phenyl]methoxy}pyrimidin-2-yl)-5-(hydroxymethyl)-1,3-oxazolidin-2-one]	C′ (C′ = <5X)	C′ (C′ = <5X)
1000 to 10000 nM	1000 to 10000 nM	COC1CCN(c2ncc(OCc3c(Cl)cccc3Cl)cn2)C1 (centres unmarked) [5-[(2,6-dichlorophenyl)methoxy]-2-(3-methoxypyrrolidin-1-yl)pyrimidine]	A′ (A′ = ≥10X)	B′ (B′ = ≥5X to <10X)
1000 to 10000 nM	1000 to 10000 nM	Clc1cccc(Cl)c1COc1cnc(-n2ncc(-c3ccccn3)n2)nc1 [5-[(2,6-dichlorophenyl)methoxy]-2-[4-(2-pyridyl)triazol-2-yl]pyrimidine]	A′ (A′ = ≥10X)	A′ (A′ = ≥10X)
< 1000 nM	< 1000 nM	CNC(=O)N1CCN(c2ncc(OCc3c(Cl)cccc3Cl)cn2)CC1	A′ (A′ = ≥10X)	A′ (A′ = ≥10X)
1000 to 10000 nM	1000 to 10000 nM	Cc1cccc(C(F)(F)F)c1COc1cnc(N2CCN(CCOCCO)CC2)nc1	A′ (A′ = ≥10X)	A′ (A′ = ≥10X)
1000 to 10000 nM	1000 to 10000 nM	NCc1cn(-c2ccc(OCc3c(Cl)cccc3Cl)cc2)cn1 [Example 227, [1-[4-[(2,6-dichlorophenyl)methoxy]phenyl]imidazol-4-yl]methanamine]	B′ (B′ = ≥5X to <10X)	B′ (B′ = ≥5X to <10X)
1000 to 10000 nM	1000 to 10000 nM	O=C1CN(c2ncc(OCc3c(Cl)cccc3Cl)cn2)CCN1CCO	A′ (A′ = ≥10X)	A′ (A′ = ≥10X)
